# Laboratory results published in patent publication US12780800B1, “Triazole-pyridinyl substituted azacyclohexyl acetic acid compounds as LPA receptor antagonists” (Viva Star Biosciences Limited, priority 2021, dated 2022).
# Molecular target: T1, LPA1 (Homo sapiens, UniProt Q92633)
# T1 construct: ProLink (PK) beta-galactosidase enzyme-fragment tag; host or cells: CHO-K1
# Assay: LPA1 calcium flux assay (LPA1 functional antagonist assay)
# Format: cell-based
# Settings: PathHunter CHO-K1 EDG2 β-Arrestin cell line; calcium indicator dye; stimulated with EC80 concentration of LPA; FLIPR Tetra
# In short: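 The LPA1 antagonist readout was intracellular calcium flux, and IC50 values were calculated from it. Plates stood 30 min at RT after compound addition. Cells, grown overnight, had first taken up calcium dye over 45 min at 37 °C.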
# T1 sequence (Q92633 whole entry, the tested form may be a part): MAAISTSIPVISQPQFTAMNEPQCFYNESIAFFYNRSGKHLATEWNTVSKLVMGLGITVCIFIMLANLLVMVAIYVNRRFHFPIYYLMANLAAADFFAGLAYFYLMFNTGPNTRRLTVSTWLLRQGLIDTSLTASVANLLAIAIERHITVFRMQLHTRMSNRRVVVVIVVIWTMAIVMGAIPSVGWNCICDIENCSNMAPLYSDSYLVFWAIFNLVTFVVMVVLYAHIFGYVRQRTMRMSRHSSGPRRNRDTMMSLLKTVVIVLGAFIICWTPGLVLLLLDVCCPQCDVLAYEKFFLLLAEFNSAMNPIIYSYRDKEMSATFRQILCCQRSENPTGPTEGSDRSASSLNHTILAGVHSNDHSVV
row,Compound,IC50
1,"CCCc1ccc(=O)n(Cc2c(-c3ccc(N4C[C@@H](CC(=O)O)CC(F)(F)C4)c(C)n3)nnn2C)c1 [Example 4, (S)-2-(5,5-difluoro-1-(2-methyl-6-(1-methyl-5-((2-oxo-5-propylpyridin-1(2H)-yl)methyl)-1H-1,2,3-triazol-4-yl)pyridin-3-yl)piperidin-3-yl)acetic acid]",0.1 to 0.5 µM
2,"CCCc1ccc(=O)n(Cc2c(-c3ccc(CN4CC(C(=O)O)CC(F)(F)C4)c(C)n3)nnn2C)c1 (single isomer, unassigned) [Example 157, (R) or (S)-5,5-difluoro-1-((2-methyl-6-(1-methyl-5-((2-oxo-5-propylpyridin-1(2H)-yl)methyl)-1H-1,2,3-triazol-4-yl)pyridin-3-yl)methyl)piperidine-3-carboxylic acid]",0.5 to 5 µM
3,"CCc1nc(-c2nnn(C)c2CNc2noc(C3CCC3)n2)ccc1N1C[C@@H](CC(=O)O)CC(F)(F)C1 [Example 120, (S)-2-(1-(6-(5-(((5-cyclobutyl-1,2,4-oxadiazol-3-yl)amino)methyl)-1-methyl-1H-1,2,3-triazol-4-yl)-2-ethylpyridin-3-yl)-5,5-difluoropiperidin-3-yl)acetic acid]",0.5 to 5 µM
4,"CCc1nc(-c2nnn(C)c2COc2nc(C3CCC3)nc(N3CCOCC3)n2)ccc1N1CCC[C@H](CC(=O)O)C1 [Example 96, (R)-2-(1-(6-(5-(((4-cyclobutyl-6-morpholino-1,3,5-triazin-2-yl)oxy)methyl)-1-methyl-1H-1,2,3-triazol-4-yl)-2-ethylpyridin-3-yl)piperidin-3-yl)acetic acid]",0.1 to 0.5 µM
5,"CCCN(C)C(=O)OCc1c(-c2ccc(N3CCOC(CC(=O)O)C3)c(CC)n2)nnn1C (centres unmarked) [Example 170, 2-(4-(2-ethyl-6-(1-methyl-5-(((methyl(propyl)carbamoyl)oxy)methyl)-1H-1,2,3-triazol-4-yl)pyridin-3-yl)morpholin-2-yl)acetic acid]",0.5 to 5 µM
6,"CCc1nc(-c2cnn(C)c2Cn2cc(CC(C)C)ccc2=O)ncc1N1C[C@@H](CC(=O)O)CC(F)(F)C1 [Example 40, (S)-2-(1-(4-ethyl-2-(5-((5-isobutyl-2-oxopyridin-1(2H)-yl)methyl)-1-methyl-1H-pyrazol-4-yl)pyrimidin-5-yl)-5,5-difluoropiperidin-3-yl)acetic acid]",0.5 to 5 µM
7,"CCCN(C)C(=O)OCc1c(-c2ccc(N3C[C@@H](CC(=O)O)CC(F)(F)C3)c(C)n2)nnn1C [Example 139, (S)-2-(5,5-difluoro-1-(2-methyl-6-(1-methyl-5-(((methyl(propyl)carbamoyl)oxy)methyl)-1H-1,2,3-triazol-4-yl)pyridin-3-yl)piperidin-3-yl)acetic acid]",0.1 to 0.5 µM
8,"CCc1nc(-c2nnn(C)c2COc2cc(C3CCC3)ncn2)ccc1N1CCC[C@H](CC(=O)O)C1 [Example 80, (R)-2-(1-(6-(5-(((6-cyclobutylpyrimidin-4-yl)oxy)methyl)-1-methyl-1H-1,2,3-triazol-4-yl)-2-ethylpyridin-3-yl)piperidin-3-yl)acetic acid]",< 0.1 µM
9,"Cc1nc(-c2nnn(C)c2Cn2cc(CC3CC3)n(C)c2=O)ccc1N1C[C@@H](CC(=O)O)CC(F)(F)C1 [Example 67, (S)-2-(1-(6-(5-((4-(cyclopropylmethyl)-3-methyl-2-oxo-2,3-dihydro-1H-imidazol-1-yl)methyl)-1-methyl-1H-1,2,3-triazol-4-yl)-2-methylpyridin-3-yl)-5,5-difluoropiperidin-3-yl)acetic acid]",0.1 to 0.5 µM
10,"Cc1nc(-c2nnn(C)c2Cn2ccn(CC(C)C)c2=O)ccc1N1C[C@@H](CC(=O)O)CC(F)(F)C1 [Example 71, (S)-2-(5,5-difluoro-1-(6-(5-((3-isobutyl-2-oxo-2,3-dihydro-1H-imidazol-1-yl)methyl)-1-methyl-1H-1,2,3-triazol-4-yl)-2-methylpyridin-3-yl)piperidin-3-yl)acetic acid]",> 5 µM
11,"CCCc1ccc(=O)n(Cc2c(-c3ccc(N4CCO[C@H](CC(=O)O)C4)c(CC)n3)nnn2C)c1 [Example 172, 2-[(2R)-4-(2-ethyl-6-{1-methyl-5-[(2-oxo-5-propyl-1,2-dihydropyridin-1-yl)methyl]-1H-1,2,3-triazol-4-yl}pyridin-3-yl)morpholin-2-yl]acetic acid]",0.5 to 5 µM
12,"CCCn1ccnc(OCc2c(-c3ccc(N4C[C@@H](CC(=O)O)CC(F)(F)C4)c(C)n3)nnn2C)c1=O [Example 106, (S)-2-(5,5-difluoro-1-(2-methyl-6-(1-methyl-5-(((3-oxo-4-propyl-3,4-dihydropyrazin-2-yl)oxy)methyl)-1H-1,2,3-triazol-4-yl)pyridin-3-yl)piperidin-3-yl)acetic acid]",> 5 µM

# Further lines, results first:
row,IC50,Compound
1,0.5 to 5 µM,"CCc1nc(-c2nnn(C)c2COc2nccc(C3CCC3)n2)ccc1N1CCCC(CC(=O)O)C1=O (single isomer, unassigned) [Example 94, (S) or (R)-2-(1-(6-(5-(((4-cyclobutylpyrimidin-2-yl)oxy)methyl)-1-methyl-1H-1,2,3-triazol-4-yl)-2-ethylpyridin-3-yl)-2-oxopiperidin-3-yl)acetic acid]"
2,> 5 µM,CCCc1cc(=O)n(Cc2c(-c3ccc(N4C[C@@H](CC(=O)O)CC(F)(F)C4)c(CC)n3)nnn2C)cn1 [Example 31]
3,0.1 to 0.5 µM,"CCc1nc(-c2nnn(C)c2CNc2noc(CC3CC3)n2)ccc1N1C[C@@H](CC(=O)O)CC(F)(F)C1 [Example 117, (S)-2-(1-(6-(5-(((5-(cyclopropylmethyl)-1,2,4-oxadiazol-3-yl)amino)methyl)-1-methyl-1H-1,2,3-triazol-4-yl)-2-ethylpyridin-3-yl)-5,5-difluoropiperidin-3-yl)acetic acid]"
4,< 0.1 µM,"CCc1nc(-c2nnn(C)c2COc2nccc(C3CCC3)n2)ccc1N1C[C@@H](CC(=O)O)CC(F)(F)C1 [Example 79, (S)-2-(1-(6-(5-(((4-cyclobutylpyrimidin-2-yl)oxy)methyl)-1-methyl-1H-1,2,3-triazol-4-yl)-2-ethylpyridin-3-yl)-5,5-difluoropiperidin-3-yl)acetic acid]"
5,< 0.1 µM,"CCc1nc(-c2nnn(C)c2Cn2cc(CC(C)C)ccc2=O)ccc1N1C[C@@H](CC(=O)O)CC(F)(F)C1 [Example 12, (S)-2-(1-(2-ethyl-6-(5-((5-isobutyl-2-oxopyridin-1(2H)-yl)methyl)-l-methyl-1H-1,2,3-triazol-4-yl)pyridin-3-yl)-5,5-difluoropiperidin-3-y)acetic acid]"
6,0.5 to 5 µM,"CCc1nc(-c2nnn(C)c2Cn2cc(C#CC3CC3)ccc2=O)ccc1N1C[C@@H](CC(=O)O)CC(F)(F)C1 [Example 21, (S)-2-(1-(6-(5-((5-(cyclopropylethynyl)-2-oxopyridin-1(2H)-yl)methyl)-1-methyl-1H-1,2,3-triazol-4-yl)-2-ethylpyridin-3-yl)-5,5-difluoropiperidin-3-yl)acetic acid]"
7,< 0.1 µM,"CCc1nc(-c2nnn(C)c2COc2nccc(-n3cccn3)n2)ccc1N1CCC[C@H](CC(=O)O)C1 [Example 101, (R)-2-(1-(6-(5-(((4-(1H-pyrazol-1-yl)pyrimidin-2-yl)oxy)methyl)-1-methyl-1H-1,2,3-triazol-4-yl)-2-ethylpyridin-3-yl)piperidin-3-yl)acetic acid]"
8,> 5 µM,"CCCc1cnn(Cc2c(-c3ccc(N4C[C@@H](CC(=O)O)CC(F)(F)C4)c(C)n3)nnn2C)c(=O)c1 [Example 33, (S)-2-(5,5-difluoro-1-(2-methyl-6-(1-methyl-5-((6-oxo-4-propylpyridazin-1(6H)-yl)methyl)-1H-1,2,3-triazol-4-yl)pyridin-3-yl)piperidin-3-yl)acetic acid]"
9,< 0.1 µM,"CCc1nc(-c2cnn(C)c2COc2nccc(C3CCC3)n2)ncc1N1C[C@@H](CC(=O)O)CC(F)(F)C1 [Example 87, (S)-2-(1-(2-(5-(((4-cyclobutylpyrimidin-2-yl)oxy)methyl)-1-methyl-1H-pyrazol-4-yl)-4-ethylpyrimidin-5-yl)-5,5-difluoropiperidin-3-yl)acetic acid]"
10,> 5 µM,"CCCc1ccn(Cc2c(-c3ccc(N4C[C@@H](CC(=O)O)CC(F)(F)C4)c(CC)n3)nnn2C)c(=O)c1 [Example 8, (S)-2-(1-(2-ethyl-6-(1-methyl-5-((2-oxo-4-propylpyridin-1(2H)-yl)methyl)-1 H-1,2,3-triazol-4-yl)pyridin-3-yl)-5,5-difluoropiperidin-3-yl)acetic acid]"
11,0.5 to 5 µM,"CCc1nc(-c2nnn(C)c2COc2nccc(C3CCC3)n2)ccc1CN1CC(C(=O)O)CC(F)(F)C1 (single isomer, unassigned) [Example 153, (R) or (S)-1-((6-(5-(((4-cyclobutylpyrimidin-2-yl)oxy)methyl)-1-methyl-1H-1,2,3-triazol-4-yl)-2-ethylpyridin-3-yl)methyl)-5,5-difluoropiperidine-3-carboxylic acid]"
12,0.1 to 0.5 µM,"CCCc1ccc(=O)n(Cc2c(-c3ccc(CN4CC(C(=O)O)CC(F)(F)C4)c(CC)n3)nnn2C)c1 (single isomer, unassigned) [Example 149, (S) or (R)-1-((2-ethyl-6-(1-methyl-5-((2-oxo-5-propylpyridin-1(2H)-yl)methyl)-1H-1,2,3-triazol-4-yl)pyridin-3-yl)methyl)-5,5-difluoropiperidine-3-carboxylic acid]"
13,0.1 to 0.5 µM,"Cc1nc(-c2nnn(C)c2COc2nnccc2CC(C)C)ccc1N1C[C@@H](CC(=O)O)CC(F)(F)C1 [Example 86, (S)-2-(5,5-difluoro-1-(6-(5-(((4-isobutylpyridazin-3-yl)oxy)methyl)-1-methyl-1H-1,2,3-triazol-4-yl)-2-methylpyridin-3-yl)piperidin-3-yl)acetic acid]"
14,0.5 to 5 µM,"CCc1nc(-c2nnn(C)c2CNc2nccc(C3CC3)n2)ccc1CN1CC(C(=O)O)CC(F)(F)C1 (centres unmarked) [Example 151, 1-((6-(5-(((4-cyclopropylpyrimidin-2-yl)amino)methyl)-1-methyl-1H-1,2,3-triazol-4-yl)-2-ethylpyridin-3-yl)methyl)-5,5-difluoropiperidine-3-carboxylic acid]"
